Values after ≈ are worked out from the molar mass of the structure shown. Where two headings read alike, the source gives them in different places. One block for each molecule: values may come before it.
Experiments:
[1] = tested on: Clostridium difficile infection; details: severe CDI; cited from earlier work
Caco-2 monolayer = test: Caco-2 cell permeability assay; format: in vitro ADME
Protocol: The permeability co-efficient (Papp A-B) of the compounds were calculated and the ability of compounds to move from the apical to the basolateral side of Caco-2 monolayer is shown in FIG. 16.

[2] = tested on: C. difficile strains R20291 and BAA-1875; test: MIC testing against C. difficile strains R20291 and BAA-1875; format: cell-based, Clostridium difficile; details: for MIC: Clostridioides difficile, BAA1875, C. difficile R20291 and BAA-1875 (FIG. 8), 24 h, 37° C., anaerobic; for fold less active than 1971 (MIC): relative to parent 1971
Protocol: (§1) The synthesized compounds were initially tested against four virulent C. difficile strains: CD1803 (toxinotype III, 95 NAP1), CD1875 (toxinotype V, NAP7), R20291 (ribotype 027—from A. Sonenshein, Tufts University, USA), and BAA-1875 (ribotype 078, from American Type Culture Collection-ATCC). The activities (i.e. Minimum Inhibitory Concentrations-MICs) of test compounds were determined in 24 or 96 well microtitre plates using bacterial inocula of 10^6 cfu/mL and were defined as the lowest concentration of test compound that inhibited visible growth after 24 h of incubation at 37° C. in an A35 anaerobic chamber (Don-Whitley).

[3] = tested on: C. difficile strain ATCC 43596; test: Hamster model of CDI (efficacy); format: in vivo, Golden Syrian hamsters
Protocol: Golden Syrian hamsters (˜100 g) from Charles River Laboratories were separately housed in sterile cages and maintained on sterile food and water. On day −1, animals were subcutaneously injected with clindamycin phosphate solution (50 mg/kg, from Hospira). After 20 h (day 0), hamsters were infected by oral gavage with 10^6 cfu of the C. difficile strain ATCC 43596 grown in Sporulation Medium and washed once with pre-reduced PBS; 15. […] After 5 days of treatment, surviving hamsters were monitored for up to 30 days for signs of disease as described by Anton et al. All moribund animals were euthanized, as well as those that survived the post-treatment monitoring period (30 days); ceca were recovered from all animals. All animal experiments were approved by The Institutional Animal Care and Use Committee of The University of Texas at Arlington.

[4] = Pharmacokinetic study in hamsters, plasma; format: in vivo; details: male, Syrian, po, hamster, 100 mg/kg in PEG-400:water (85:15); for AUC: read-out: total exposure (AUC) in plasma
Protocol: (§2) Pharmacokinetic studies were assessed in male Syrian hamsters (˜100 g), from Charles-River, with each carrying a pre-implanted jugular vein cannula. Hamsters (n=5 per group) were fasted overnight and for the duration of the experiment (7 h). After collecting pre-dose blood samples (200 μL), animals were dosed with 100 mg/kg of compounds formulated in PEG-400:water (85:15). At various time points blood samples were collected into heparinized coated tubes that were centrifuged at 3000 rpm for 10 min to yield plasma, which was stored at −20° C. After dosing animals (n=3 per time point) as above, animals were humanely sacrificed at time points and their cecal contents collected and stored at −20° C. For plasma samples, 25 μL of plasma was placed in 384-well analytical plate and quenched by the addition of 50 μL of acetonitrile containing 4 mg/L warfarin as an internal standard. The plate was sealed, shaken at 600 rpm for 10 min, and then was centrifuged at 4000 rpm for 20 min. 15 μL of the supernatant was transferred to a new analytical 96-well plate and mixed with 100 μL of MilliQ water. The samples were analyzed by injecting 5 μL onto a Waters UPLC/SQD LC-MS/MS system. The cecal samples were processed by adding 100 μL of acetonitrile containing 4 mg/L of warfarin (internal standard) to the microfuge tubes containing cecal matter (˜50 mg). The suspension was vortexed for 10 sec, sonicated for 1 min and then centrifuged at 10,000 rpm for 10 min. Aliquots (50 μL) of the collected supernatants were then transferred to a 384-well plate and analyzed by high resolution mass spectroscopy using Waters XEVO QTOF LCMS.

[5] = tested on: C. difficile strain ATCC 43596; test: MIC against infecting strain ATCC 43596; format: cell-based, Clostridium difficile
C. difficile = test: MIC of nitro and des-nitro analogs (mode of action); format: cell-based, Clostridium difficile; details: Clostridioides difficile; des-nitro analogs (FIG. 11)
[6] = tested on: C. difficile strain BAA-1803; test: MIC against C. difficile strain BAA-1803; format: cell-based, Clostridium difficile; details: 3-position substituents
Protocol: as §1

[7] = Cecal content concentrations in hamsters; format: in vivo; details: for mean peak cecal concentration: hamster cecal contents at 1, 3 and 5 h after oral dosing 100 mg/kg, LLOQ 10 ng/mL
Protocol: as §2, with “After” for “Pharmacokinetic studies were assessed in male Syrian hamsters (˜100 g), from Charles-River, with each carrying a pre-implanted jugular vein cannula. Hamsters (n=5 per group) were fasted overnight and for the duration of the experiment (7 h). After collecting pre-dose blood samples (200 μL), animals were dosed with 100 mg/kg of compounds formulated in PEG-400:water (85:15). At various time points blood samples were collected into heparinized coated tubes that were centrifuged at 3000 rpm for 10 min to yield plasma, which was stored at −20° C. After”
To evaluate this in vivo, we determined the concentrations of the three compounds in the cecal contents recovered from hamsters at 1, 3 and 5 h time points following oral dosing (FIG. 19).

[8] = In vitro microsomal stability; format: in vitro ADME; details: microsomes; data not shown; read-out: microsomal stability t½ (converted)
Description: Thus, the very low concentration of the hybrids in the plasma might likely be due to a combination of poor intestinal absorption and hepatic clearance.

[9] = literature; cited from earlier work
[10] = Clostridioides difficile, ATCC43596, infecting strain ATCC 43596, read-out: MIC

SMILES: Cc1ncc([N+](=O)[O-])n1CCO [metronidazole, reference compound]
patients relapsing following therapy [1]: more than 25% | Caco-2 permeation in words (Caco-2 monolayer; apical to basolateral): highly permeable | MIC [2]: 0.25 µg/mL (≈ 1.46 µM) | survival, maximum days post-infection ([3]; 50 mg/kg once daily, days 1 to 5, oral): ≤ 10 days | Cmax [4]: 51000 ng/mL | Tmax [4]: 60 min | AUC [4]: 135000 ng·h/mL | MIC ([5]; Clostridioides difficile, ATCC43596): 0.125 µg/mL (≈ 0.73 µM)

Caco-2 permeation in words (Caco-2 monolayer; Caco-2): slightly more permeable than vancomycin | permeability co-efficient (Papp A-B) (Caco-2 monolayer; Caco-2): 284.5±34.7 to 307±35.6
SMILES: CC(=O)C1=C(O)C(Cc2ccccc2)N(CCn2c([N+](=O)[O-])cnc2C)C1=O (centres unmarked) [Compound 2154, 3-acetyl-5-benzyl-4-hydroxy-1-(2-(2-methyl-5-nitro-1H-imidazol-1-yl)ethyl)-1H-pyrrol-2(5H)-one]

fold less active than 1971 (MIC) [2]: 24 fold
SMILES: Cc1cnc([N+](=O)[O-])n1CCNC(=O)C1=C(O)C(CC(C)C)NC1=O (centres unmarked) [Compound 2122, 4-hydroxy-5-isobutyl-N-(2-(5-methyl-2-nitro-1H-imidazol-1-yl)ethyl)-2-oxo-2,5-dihydro-1H-pyrrole-3-carboxamide]

MIC (C. difficile): > 128 µg/mL
SMILES: CC(=O)C1=C(O)C(Cc2cccc3ccccc23)N(CCn2ccnc2C)C1=O (centres unmarked) [Compound 2699, 3-acetyl-4-hydroxy-1-(2-(2-methyl-1H-imidazol-1-yl)ethyl)-5-(naphthalen-1-ylmethyl)-1H-pyrrol-2(5H)-one]

fold less active than 1971 (MIC) [2]: 10 fold
SMILES: Cc1ncc([N+](=O)[O-])n1CC(=O)C1=C(O)C(CC(C)C)NC1=O (centres unmarked) [Compound 2123, 4-hydroxy-5-isobutyl-3-(2-(2-methyl-5-nitro-1H-imidazol-1-yl)acetyl)-1H-pyrrol-2(5H)-one]

activity / MIC in words (FIG. 10) [6]: No difference in MIC | Caco-2 permeation in words (Caco-2 monolayer; Caco-2): slightly more permeable than vancomycin | permeability co-efficient (Papp A-B) (Caco-2 monolayer; Caco-2): 284.5±34.7 to 307±35.6
SMILES: Cc1ncc([N+](=O)[O-])n1CCN1C(=O)C(C(=O)c2ccc(F)cc2)=C(O)[C@H]1CC(C)C [Compound 2315, (R)-3-(4-fluorobenzoyl)-4-hydroxy-5-isobutyl-1-(2-(2-methyl-5-nitro-1H-imidazol-1-yl)ethyl)-1H-pyrrol-2(5H)-one]

fold less active than 1971 (MIC) [2]: > 64 fold
SMILES: CC(=O)C1=C(O)CN(CCn2c([N+](=O)[O-])cnc2C)C1=O [Compound 2153, 3-acetyl-4-hydroxy-1-(2-(2-methyl-5-nitro-1H-imidazol-1-yl)ethyl)-1H-pyrrol-2(5H)-one]

activity / MIC in words (FIG. 10) [6]: loss of activity
SMILES: Cc1ncc([N+](=O)[O-])n1CCN1C(=O)C=C(O)C1CC(C)C.O=C(O)C(F)(F)F (centres unmarked) [Compound 2314, 4-hydroxy-5-isobutyl-1-(2-(2-methyl-5-nitro-1H-imidazol-1-yl)ethyl)-1H-pyrrol-2(5H)-one, TFA]

Caco-2 permeation in words (Caco-2 monolayer; Caco-2): slightly more permeable than vancomycin | permeability co-efficient (Papp A-B) (Caco-2 monolayer; Caco-2): 284.5±34.7 to 307±35.6
SMILES: CCC(C)C1C(O)=C(C(C)=O)C(=O)N1CCn1c([N+](=O)[O-])cnc1C (centres unmarked) [Compound 2155, 3-acetyl-5-(sec-butyl)-4-hydroxy-1-(2-(2-methyl-5-nitro-1H-imidazol-1-yl)ethyl)-1H-pyrrol-2(5H)-one]

fold difference in cecal concentration of 2344 and 2345 ([7]; 2345 versus 2344): 12 fold | mean peak cecal concentration [7]: 32,649 ng/mL | half-life [8]: 79.8 min | Cmax [4]: 616 ng/mL | Tmax [4]: 15 min | AUC [4]: 355 ng·h/mL | MIC [5, 10]: 0.25 µg/mL (≈ 0.543 µM)
SMILES: CC(=O)C1=C(O)C(Cc2ccc(-c3ccccc3)cc2)N(CCn2c([N+](=O)[O-])cnc2C)C1=O (centres unmarked) [Compound 2345, 5-([1,1′-biphenyl]-4-ylmethyl)-3-acetyl-4-hydroxy-1-(2-(2-methyl-5-nitro-1H-imidazol-1-yl)ethyl)-1H-pyrrol-2(5H)-one]

MIC (C. difficile): > 128 µg/mL
SMILES: CC(=O)C1=C(O)C(Cc2ccc(-c3ccccc3)cc2)N(CCn2ccnc2C)C1=O (centres unmarked) [Compound 2700, 5-([1,1′-biphenyl]-4-ylmethyl)-3-acetyl-4-hydroxy-1-(2-(2-methyl-1H-imidazol-1-yl)ethyl)-1H-pyrrol-2(5H)-one]

Caco-2 permeation in words (Caco-2 monolayer; Caco-2): slightly more permeable than vancomycin | permeability co-efficient (Papp A-B) (Caco-2 monolayer; Caco-2): 284.5±34.7 to 307±35.6
SMILES: CC(=O)C1=C(O)C(CSCc2ccccc2)N(CCn2c([N+](=O)[O-])cnc2C)C1=O (centres unmarked) [Compound 2313, 3-acetyl-5-((benzylthio)methyl)-4-hydroxy-1-(2-(2-methyl-5-nitro-1H-imidazol-1-yl)ethyl)-1H-pyrrol-2(5H)-one]

activity / MIC in words (FIG. 10) [6]: No difference in MIC | MIC [2]: 1 to 2 µg/mL (≈ 2.85 to 5.71 µM) | fold less active than metronidazole (MIC) ([2]; relative to metronidazole): 4 to 8 fold | MIC [5, 10]: 0.5 µg/mL (≈ 1.43 µM)
SMILES: CC(=O)C1=C(O)C(CC(C)C)N(CCn2c([N+](=O)[O-])cnc2C)C1=O (centres unmarked) [Compound 1971, 3-acetyl-4-hydroxy-5-isobutyl-1-(2-(2-methyl-5-nitro-1H-imidazol-1-yl)ethyl)-1H-pyrrol-2(5H)-one]

SMILES: CN[C@H](CC(C)C)C(=O)N[C@H]1C(=O)N[C@@H](CC(N)=O)C(=O)N[C@H]2C(=O)N[C@H]3C(=O)N[C@H](C(=O)N[C@H](C(=O)O)c4cc(O)cc(O)c4-c4cc3ccc4O)[C@H](O)c3ccc(c(Cl)c3)Oc3cc2cc(c3O[C@@H]2O[C@H](CO)[C@@H](O)[C@H](O)[C@H]2O[C@H]2C[C@](C)(N)[C@H](O)[C@H](C)O2)Oc2ccc(cc2Cl)[C@H]1O [vancomycin]
Caco-2 permeation in words (Caco-2 monolayer; apical to basolateral): poor permeation properties | complete survival, days post-treatment ([3]; vancomycin 20 mg/kg, hybrids 50 mg/kg): more than 20 days | absorbed from the gastrointestinal tract [9]: < 10%

mean peak cecal concentration [7]: 2,678 ng/mL | half-life [8]: 18 min | Cmax [4]: 211 ng/mL | Tmax [4]: 15 min | AUC [4]: 386 ng·h/mL | MIC [5, 10]: 0.25 µg/mL (≈ 0.575 µM)
SMILES: CC(=O)C1=C(O)C(Cc2cccc3ccccc23)N(CCn2c([N+](=O)[O-])cnc2C)C1=O (centres unmarked) [Compound 2344, 3-acetyl-4-hydroxy-1-(2-(2-methyl-5-nitro-1H-imidazol-1-yl)ethyl)-5-(naphthalen-1-ylmethyl)-1H-pyrrol-2(5H)-one]

MIC ([5]; infecting strain ATCC 43596): 0.25 µg/mL (≈ 0.571 µM)
SMILES: CC(=O)C1=C(O)C(Cc2cn(C)c3ccccc23)N(CCn2c([N+](=O)[O-])cnc2C)C1=O (centres unmarked) [Compound 2490]
